Reference: patent US11458144B1, “Methods for using 5-HMF analogs with increased solubility to inhibit or reverse RBC sickling” (King Abdulaziz University, priority 2021, dated 2022)
Read-outs that look alike come from different tables or passages of the source.

What was measured:
Hb [1] = target: T1, Hb (Homo sapiens, UniProt P68871+P69905, E7V); assay: Oxygen equilibrium study (P50 shift) of lysates from SS blood, Hemox Analyzer; type: cell-based; details: SS RBCs
T1 construct: Using homozygous sickle (SS) blood from patients; endogenous in cells; host or cells: red blood cells of homozygous SS patient blood (hematocrit 20%); clarified lysates measured after incubation
Method: (§1) The effect of the MMA compounds and positive control 5-HMF on RBC sickling, Hb modification, and Hb oxygen equilibrium was studied utilizing SS blood following previous procedure.^[27]
For the oxygen equilibrium study, about 100 μL aliquot of clarified lysate of residual samples from the above antisickling study was added to 4 mL of 0.1 M potassium phosphate buffer, pH 7.0, in cuvettes and subjected to hemoximetry analysis using Hemox™ Analyzer (TCS Scientific Corp., New Hope, Pa.) to assess P50 shift, which is the partial pressure of oxygen (PO2) at which 50% of Hb is saturated with oxygen (SO2). Degree of Hb O2 affinity shift (ΔP50) was expressed as percentage fractions of control DMSO-treated samples.
(§2) Using homozygous sickle (SS) blood from patients, the MMA compounds (MMA502, MMA503, MMA504, MMA505, and MMA509 were tested with 5-HMF as control for Hb adduct formation, effect on Hb affinity for oxygen and corresponding antisickling activities (RBC morphology study) using previously published protocols.^14,15

SS RBCs = assay: Antisickling study (RBC morphology) in SS blood under hypoxia; type: cell-based, human; details: 2 mM; for antisickling activity relative to 5-HMF: over 5-HMF; for inhibition at 2000 µM: Homo sapiens, read-out: % Sickling inhibition
Method: as §1
For the antisickling study, SS blood (hematocrit 20%) were incubated under air in the absence or presence of all the MMA compounds (0.5 mM, 1 mM and 2 mM) at 37° C. for 1 h, followed by incubating the mixture under hypoxic conditions (2.5% O2) at 37° C. for 2 h. Aliquots with fixed 2% glutaraldehyde solution and under anaerobic condition were subjected to microscopic morphological analysis.^[11]
as §2

Hb [2] = target: T1, Hb; assay: Hb adduct formation (Hb modification) by cation-exchange HPLC, SS blood lysates; type: binding; details: SS RBCs
From the text: as §1
The Hb adduct formation study also used clarified lysates that were subjected to a cation-exchange HPLC (Hitachi D-7000 Series, Hitachi Instruments, Inc., San Jose, Calif.), and a weak cation-exchange column (Poly CAT A: 30 mm×4.6 mm, Poly LC, Inc., Columbia, Md.).
as §2

HbA = target: T2, HbA (Homo sapiens, UniProt P68871+P69905); assay: Time-dependent Hb oxygen equilibrium study in normal whole blood; type: cell-based; details: 2 mM, 20% hematocrit
T2 construct: time-dependent P50-shift of HbA in normal blood (20% hematocrit); endogenous in cells; host or cells: red blood cells in normal whole blood of adult donors (hematocrit 20%)
Method: The time-dependent effect of the MMA compounds and positive control 5-HMF on Hb oxygen affinity was studied using normal blood following previous procedure.^[15] Briefly, normal blood samples (hematocrit 20%) were incubated with the compounds at 37° C. for 24 h. Aliquots were taken at various time points and incubated in IL 237 tonometers (Instrumentation Laboratories, Inc. Lexington, Mass.) for 10 minutes at 37° C., and allowed to equilibrate at oxygen tensions 6, 20, and 40 mmHg. The samples were then aspirated into an ABL 700 Automated Blood Gas Analyzer (Radiometer) to determine the pH, partial pressure of CO2 (pCO2), partial pressure of oxygen (pO2), and Hb oxygen saturation values (SO2). The measured values of pO2 (mmHg) and SO2 at each pO2 value were then subjected to a non-linear regression analysis using the program Scientist (Micromath, Salt Lake City, Utah) to estimate P50 as previously reported.^[28]
5-HMF has a short half-life and poor oral bioavailability due to this metabolic instability, which in part prevented its development for chronic use. Nonetheless, this metabolic instability could be advantageous for parenteral formulation for acute use. […] Briefly, blood samples (hematocrit 20%) were incubated with the compounds at 37° C. for 24 h, and aliquots were taken at the various time points and used to determine the PO2 and SO2 using ABL 800 Automated Blood Gas Analyzer (Radiometer), and to estimate P50 as previously reported.^[10]
The study confirmed the trend in the biological potencies observed with SS blood.

CYP2B6 = target: T3, CYP2B6 (Homo sapiens, UniProt P20813); assay: In vitro CYP inhibition, pooled human liver microsomes
T3 sequence (P20813 1-491): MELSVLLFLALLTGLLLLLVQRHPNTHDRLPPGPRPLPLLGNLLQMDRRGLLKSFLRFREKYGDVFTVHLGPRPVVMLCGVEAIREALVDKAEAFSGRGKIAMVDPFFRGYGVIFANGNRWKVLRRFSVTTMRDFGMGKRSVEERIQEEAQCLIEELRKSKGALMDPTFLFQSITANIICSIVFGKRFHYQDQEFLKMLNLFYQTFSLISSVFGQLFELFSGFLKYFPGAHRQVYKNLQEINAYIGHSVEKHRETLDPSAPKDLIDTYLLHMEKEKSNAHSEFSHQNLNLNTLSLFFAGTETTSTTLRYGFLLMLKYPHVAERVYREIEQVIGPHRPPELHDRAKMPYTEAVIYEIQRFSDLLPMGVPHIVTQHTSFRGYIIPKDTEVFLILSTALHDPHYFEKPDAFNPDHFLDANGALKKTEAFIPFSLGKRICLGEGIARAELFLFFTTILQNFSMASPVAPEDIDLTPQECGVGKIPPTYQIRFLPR
Method: (§3) The probe substrates include tacrine (CYP1A2), amodiaquine (CYP2C8), tolbutamide (CYP2C9), mephenytoin (CYP2C19), dextromethorphan (CYP2D6), midazolam (CYP3A4), testosterone (CYP3A4), and bupropion (CYP2B6). […] The assays were performed in duplicate in 96-well plates at 37° C. for 10-60 minutes. The reaction was terminated with addition of methanol, followed by incubation at 4° C. for 10 min and centrifuged at 4° C. for 10 min.

CYP3A4 = CYP3A4 (Homo sapiens, UniProt P08684); assay: as above
Method: as §3

CYP2C9 = CYP2C9 (Homo sapiens, UniProt P11712); assay: as above
Method: as §3

CYP2D6 = CYP2D6 (Homo sapiens, UniProt P10635); assay: as above
Method: as §3

CYP2C19 = CYP2C19 (Homo sapiens, UniProt P33261); assay: as above
Method: as §3

CYP2C8 = target: T4, CYP2C8 (Homo sapiens, UniProt P10632); assay: as above; type: in vitro ADME; details: substrate Amodiaquine
T4 construct: using pooled human liver microsomes as previously published; from tissue; host or cells: pooled human liver microsomes
T4 sequence (P10632 1-490): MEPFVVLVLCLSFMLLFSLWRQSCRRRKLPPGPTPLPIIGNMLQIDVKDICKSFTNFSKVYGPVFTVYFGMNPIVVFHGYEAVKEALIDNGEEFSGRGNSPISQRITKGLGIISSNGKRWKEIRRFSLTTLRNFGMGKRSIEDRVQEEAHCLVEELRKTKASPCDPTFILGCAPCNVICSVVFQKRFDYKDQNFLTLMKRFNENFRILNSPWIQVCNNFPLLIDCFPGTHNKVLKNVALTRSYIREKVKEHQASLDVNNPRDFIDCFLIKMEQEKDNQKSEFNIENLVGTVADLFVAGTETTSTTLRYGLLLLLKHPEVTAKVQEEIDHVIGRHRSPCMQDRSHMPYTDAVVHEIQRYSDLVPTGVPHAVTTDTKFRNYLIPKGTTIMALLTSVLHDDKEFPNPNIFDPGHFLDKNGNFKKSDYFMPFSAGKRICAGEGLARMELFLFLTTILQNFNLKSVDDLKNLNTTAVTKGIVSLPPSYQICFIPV
Method: as §3

CYP1A2 = target: T5, CYP1A2 (Homo sapiens, UniProt P05177); assay: as above; type: in vitro ADME; details: substrate Tacrine
T5 construct: using pooled human liver microsomes as previously published; from tissue; host or cells: pooled human liver microsomes
T5 sequence (P05177 1-516): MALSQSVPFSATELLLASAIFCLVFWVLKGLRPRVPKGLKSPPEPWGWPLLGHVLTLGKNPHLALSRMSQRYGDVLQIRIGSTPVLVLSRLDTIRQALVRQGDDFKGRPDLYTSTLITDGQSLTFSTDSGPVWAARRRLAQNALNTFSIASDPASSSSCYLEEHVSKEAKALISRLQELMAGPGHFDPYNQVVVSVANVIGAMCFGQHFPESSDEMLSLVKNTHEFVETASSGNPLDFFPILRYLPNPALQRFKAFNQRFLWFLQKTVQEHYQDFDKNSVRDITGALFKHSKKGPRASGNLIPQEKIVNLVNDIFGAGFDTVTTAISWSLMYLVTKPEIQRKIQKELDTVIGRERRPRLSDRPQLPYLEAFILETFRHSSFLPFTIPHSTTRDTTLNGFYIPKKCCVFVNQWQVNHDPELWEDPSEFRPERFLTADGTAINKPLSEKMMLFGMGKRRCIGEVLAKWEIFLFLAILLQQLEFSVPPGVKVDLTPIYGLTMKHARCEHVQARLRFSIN
Method: as §3

[3] = tested on: human cytochrome P450 (CYP) enzymes; assay: In vitro CYP inhibition, panel of seven enzymes (overall statement); type: in vitro ADME; details: 0.1 to 100 μM; pooled human liver microsomes
Method: as §3

[4] = SS blood hematocrit 20%, 2.5% O2, 37° C.

O=Cc1ccc(C(F)F)o1 [MMA-502, 5-(difluoromethyl)furan-2-carbaldehyde]
% Hb-O2 affinity (P50 shift vs DMSO control) (Hb [1]; 0.5 mM): 14.2 ± 3.4% | % Hb-O2 affinity (P50 shift vs DMSO control) (Hb [1]; 1 mM): 8.8 ± 0.5% | % Hb-O2 affinity (P50 shift vs DMSO control) (Hb [1]; 2 mM, listed as 502): 31.5 ± 12.7% | % Hb-O2 affinity (P50 shift vs DMSO control) (Hb [1]; 2 mM, listed as MMA502): 32% | antisickling activity relative to 5-HMF (SS RBCs): ~2.5 fold | % Hb-modification (adduct formation) (Hb [2]; 0.5 mM): 9.6 ± 0.0% | % Hb-modification (adduct formation) (Hb [2]; 1 mM): 20.4 ± 6.6% | % Hb-modification (adduct formation) (Hb [2]; 2 mM, listed as 502): 42.4 ± 10.9% | % Hb-modification (adduct formation) (Hb [2]; 2 mM, listed as MMA502): 42%

N#Cc1ccc(C=O)o1 [MMA-505, 5-formylfuran-2-carbonitrile]
% Hb-O2 affinity (P50 shift vs DMSO control) (Hb [1]; 0.5 mM): 5.5 ± 1.2% | % Hb-O2 affinity (P50 shift vs DMSO control) (Hb [1]; 1 mM): 14.6 ± 2.1% | % Hb-O2 affinity (P50 shift vs DMSO control) (Hb [1]; 2 mM, listed as 505): 32.0 ± 3.0% | % Hb-O2 affinity (P50 shift vs DMSO control) (Hb [1]; 2 mM, listed as MMA505): 40% | antisickling activity relative to 5-HMF (SS RBCs): ~2.5 fold | inhibition at 2000 µM (SS RBCs; [4]): 55% | % Hb-modification (adduct formation) (Hb [2]; 0.5 mM): 4.2 ± 1.6% | % Hb-modification (adduct formation) (Hb [2]; 1 mM): 10.4 ± 2.6% | % Hb-modification (adduct formation) (Hb [2]; 2 mM, listed as 505): 26.7 ± 6.0% | % Hb-modification (adduct formation) (Hb [2]; 2 mM, listed as MMA505): 27% | %P50 shift (HbA; at 1 hour): 11% | duration of effect on Hb oxygen affinity (HbA; time course 0-8 hrs): completely losing activity after 3 hours

O=Cc1ccc(CO)o1 [Compound 5-HMF, 5-hydroxymethylfurfural, reference compound]
% Hb-O2 affinity (P50 shift vs DMSO control) (Hb [1]; 2 mM): 27% | % Hb-O2 affinity (P50 shift vs DMSO control) (Hb [1]; 2 mM, listed as 5HMF): 27.2 ± 4.9% | IC50 (CYP2B6): > 100 µM | IC50 (CYP3A4): > 100 µM | IC50 (CYP3A4; human, microsomes, pH 7.4): > 100 µM | IC50 (CYP2C9): > 100 µM | IC50 (CYP2D6): > 100 µM | IC50 (CYP2C19): > 100 µM | IC50 (CYP2C8): > 100 µM | IC50 (CYP1A2): > 100 µM | inhibition of liver CYP isozymes [3]: no inhibition | % Sickling inhibition (SS RBCs; [4]): 21.4 ± 0.0% | inhibition at 2000 µM (SS RBCs; [4]): 21% | % Hb-modification (adduct formation) (Hb [2]; 2 mM): 33% | % Hb-modification (adduct formation) (Hb [2]; 2 mM, listed as 5HMF): 33.8 ± 11.7% | %P50 shift (HbA; at 3 hours): 35%
